Test results taken from US6451576B1, “Sesquiterpene synthases from grand fir (Abies grandis), and methods of use” (Washington State University Research Foundation, priority 1998, dated 2002).

Columns and labels:
[1] = target: T1, γ-Humulene Synthase (ag5) (SEQ ID No: 24) (Abies grandis, UniProt O64405); test: Product profile of recombinant γ-humulene synthase in vitro (preparative assay, GLC-MS); assay type: biochemical; conditions: from [1-3H]farnesyl diphosphate; total ion current chromatogram
T1 construct: For further subcloning of the amplified, full-length cDNA into the pSBETa vector for high-level expression, the pGAG5 insert was amplified; made in house; host or cells: E. coli XL1-Blue/pGAG5 or E. coli BL21(DE3)/pSBAG5
T1 sequence (O64405 1-593): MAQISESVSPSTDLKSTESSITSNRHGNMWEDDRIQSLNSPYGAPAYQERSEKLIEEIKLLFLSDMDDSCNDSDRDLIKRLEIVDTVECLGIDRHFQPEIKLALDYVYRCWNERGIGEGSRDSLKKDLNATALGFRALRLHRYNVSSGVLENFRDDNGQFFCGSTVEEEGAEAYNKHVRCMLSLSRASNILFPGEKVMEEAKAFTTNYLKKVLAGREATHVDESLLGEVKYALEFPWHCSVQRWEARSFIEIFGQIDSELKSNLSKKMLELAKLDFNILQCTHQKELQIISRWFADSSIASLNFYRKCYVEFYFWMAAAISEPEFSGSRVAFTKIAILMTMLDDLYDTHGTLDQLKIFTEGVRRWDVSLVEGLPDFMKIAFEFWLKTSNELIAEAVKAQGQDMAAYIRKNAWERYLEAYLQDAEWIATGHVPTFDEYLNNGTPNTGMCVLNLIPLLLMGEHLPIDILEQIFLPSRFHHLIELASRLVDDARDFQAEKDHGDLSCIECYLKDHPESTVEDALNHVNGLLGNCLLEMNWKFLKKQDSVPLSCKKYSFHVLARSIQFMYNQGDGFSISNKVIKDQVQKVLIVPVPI
Description: (§1) For preparative incubations, the assay was scaled to 5 ml containing the total protein extracted from 100 ml of bacterial culture and 30 μM [1-^3H]farnesyl diphosphate, and the incubation time was extended to 8 h. Aliquots of the olefin fraction and the fraction containing oxygenated metabolites (diethyl ether eluate) were evaluated by liquid scintillation counting, and were analyzed by radio-GLC (Croteau, R. & Cane. D. E. (1985) Methods Enzymol. 110, 383-405; Satterwhite, D. M. & Croteau, R. (1988) J. Chromatogr. 452, 61-73) using a Gow-Mac 550P chromatograph that was equipped with a 3.18 mm×3.66 m stainless steel column packed with 5% OV17 (50% phenyl:50% methylsiloxane) on 100/120 mesh Gas Chrom Q (Alltech) and programmed from 150° C. to 220° C. at 2° C./min with He as carrier. The elution of co-injected standards was monitored with the Gow-Mac thermal conductivity detector (250° C. and 150 mA) and the radioactivity signal was continuously monitored with a Nuclear Chicago Model 8731 gas proportional counter; output data were processed using Perkin-Elmer Turbochrom Software.
(§2) Expression of Sesquiterpene Synthase cDNAs AG4 (SEQ ID No:19) and AG5. (SEQ ID No:23) in E. coli. Both putative sesquiterpene cyclase cDNAs (SEQ ID Nos:19 and 23) were expressed in bacterial strains E. coli XL1-Blue/pGAG4, E. coli XL1-Blue/pGAG5, E. coli BL21(DE3)/pSBAG4, and E. coli BL21(DE3)/pSBAG5 as set forth in EXAMPLE 7. Bacteria were grown to A600=0.5 at 37° C. in 5 ml or 100 ml of LB medium supplemented with 100 μg ampicillin/ml or 30 μg kanamycin/ml as determined by the vector. Cultures were then induced by addition of 1 mM isopropyl-1-thio-β-D-galactopyranoside and grown for another 12 h at 20° C. Cells were harvested by centrifugation (2000×g, 10 min) and resuspended in either 1 ml or 5 ml sesquiterpene synthase assay buffer (EXAMPLE 2). Cells were disrupted by sonication (Braun-Sonic 2000 with microprobe at maximum power for 15 seconds at 0-4° C.) and the homogenates were cleared by centrifugation (18,000×g, 10 min). Preparative assays were employed to generate product for GLC-MS analysis, as set forth in EXAMPLE 2, with quantification of composition via the total ion current chromatogram.
Product Profile of Recombinant γ-Humulene Synthase (SEQ ID No:24) In Vitro.

[2] = target: T2, δ-Selinene Synthase (ag4) (SEQ ID No. 20) (Abies grandis, UniProt O64404); test: Product profile of recombinant δ-selinene synthase in vitro (preparative assay, GLC-MS); assay type: biochemical; conditions: from [1-3H]farnesyl diphosphate; total ion current chromatogram
T2 construct: made in house; host or cells: E. coli XL1-Blue/pGAG4 or E. coli BL21(DE3)/pSBAG4
T2 sequence (O64404 1-581): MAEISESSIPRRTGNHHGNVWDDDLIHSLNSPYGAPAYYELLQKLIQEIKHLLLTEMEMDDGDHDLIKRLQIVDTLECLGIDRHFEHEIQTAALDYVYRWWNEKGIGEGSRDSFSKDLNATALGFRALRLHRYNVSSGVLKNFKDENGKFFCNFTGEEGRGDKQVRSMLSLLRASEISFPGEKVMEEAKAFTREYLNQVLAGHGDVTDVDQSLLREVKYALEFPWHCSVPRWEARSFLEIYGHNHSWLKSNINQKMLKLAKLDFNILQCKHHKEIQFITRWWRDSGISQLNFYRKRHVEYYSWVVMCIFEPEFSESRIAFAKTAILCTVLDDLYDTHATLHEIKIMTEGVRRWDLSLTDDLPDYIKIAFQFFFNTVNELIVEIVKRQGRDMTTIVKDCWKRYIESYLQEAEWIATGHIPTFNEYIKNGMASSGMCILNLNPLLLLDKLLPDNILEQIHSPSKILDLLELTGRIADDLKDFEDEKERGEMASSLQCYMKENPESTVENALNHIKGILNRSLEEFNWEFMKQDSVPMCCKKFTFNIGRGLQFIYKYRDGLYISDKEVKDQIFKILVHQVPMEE
Description: as §1, §2
Product Profile of Recombinant δ-Selinene Synthase (SEQ ID No:20) In Vitro.

Row | SMILES | sesquiterpene products of γ-humulene synthase, % [1] [%] | sesquiterpene products of δ-selinene synthase, % [2] [%]
1 | C=C1[C@H]2CC[C@@H]3[C@H]2C(C)(C)CCC[C@]13C [Longifolene] | 11.8 | 
2 | CC(C)=C1C/C=C(\C)CC/C=C(\C)CC1 [E,E-Germacrene B] |  | 17.4
3 | CC1=CCC(C(C)C)=C[C@@H]2[C@H](C)CC[C@H]12 [Guaia-6,9-diene] |  | 9.7
4 | CC1=CC2C(CC1)C(C)=CCC2C(C)C (stereo not drawn) [α-Amorphene] | 0.5 | 2.7
5 | CC(C)C1CCC2(C)C3CC4C(C13)C42C (stereo not drawn) [Cyclosativene] | <0.1 | 
6 | C=C1CCC2C3C1C2(C)CCCC3(C)C (stereo not drawn) [β-Longipinene] | 1.5 | 
7 | CC1=C[C@H]2C(=C(C)CCCC2(C)C)CC1 [β-Himachalene] | 7.2 | 
8 | CC1=CC[C@@H]2[C@@H]3[C@H]1[C@@]2(C)CCCC3(C)C [α-Longipinene] | 3.4 | 
9 | CC1=C[C@@H]2[C@@H](CC1)C(C)=CC[C@H]2C(C)C [α-Cadinene] |  | 0.2
10 | C=C1CC[C@@]23[C@@H]([C@@H]12)[C@H](C(C)C)CC[C@H]3C [β-Cubebene] | 0.1 | 
11 | C=C1C=CC(C)(C)CCCC(C)=CCC1 [γ-Humulene] | 28.6 | 
12 | C=C1CCC2C3C(C(C)C)CCC2(C)C13 (stereo not drawn) [β-Ylangene] | 0.3 | 
13 | C=C1CC/C=C(\C)CC[C@@H]2[C@@H]1CC2(C)C [β-Caryophyllene] |  | 1.5
14 | C=C1CCCC(C)(C)[C@H]2C=C(C)CC[C@@H]12 [α-Himachalene] | 4.8 | 
15 | CC1=C[C@@H]2C(=C(C)CC[C@H]2C(C)C)CC1 [δ-Cadinene] |  | 1.4
16 | CC1=CCCC2(C)CCC(=C(C)C)CC12 (stereo not drawn) [Seli-3,7(11)-diene] |  | 1.2

Row | SMILES | sesquiterpene products of γ-humulene synthase, % [1] [%] | sesquiterpene products of δ-selinene synthase, % [2] [%]
17 | C=C(C)[C@@H]1C/C=C(\C)CC/C=C(\C)CC1 [Germacrene A] |  | 6.7
18 | CC(C)=CCC/C(C)=C1/CC=C(C)CC1 [γ-Bisabolene] | 1.9 | 
19 | C=C1/C=C/[C@H](C(C)C)CC/C(C)=C/CC1 [Germacrene D] |  | 0.8
20 | C=C(C)[C@@H]1CC[C@H](C)C2=C(C1)[C@@H](C)CC2 [α-Guiaene] |  | 0.2
21 | C/C1=C\C=C(\C(C)C)CC/C(C)=C/CC1 [Germacrene C] |  | 3.4
22 | CC1=CC[C@@]23[C@@H]([C@@H]12)[C@H](C(C)C)CC[C@H]3C [α-Cubebene] | 0.1 | 
23 | C=C(C)[C@@H]1CC[C@@]2(C)CCC=C(C)[C@@H]2C1 [α-Selinene] |  | 1.7
24 | CC1CCC=C2CCC3C(C3(C)C)C21C (stereo not drawn) [β-Gurjunene] | 2.0 | 
25 | CC1=CCCC(C)=CCCC(C)=CCC1 [1,5,9-trimethylcyclododeca-1,5,9-triene (tent. 2 isomers), 1,5,9-trimethylcyclododeca-1,5,9-triene] | 0.2 | 
26 | C=CC(=C)CC/C=C(\C)CCC=C(C)C [E-β-Farnesene] | 1.3 | 
27 | CC1(C)CCC[C@@]2(C)[C@@H]3CC4C([C@@H]31)C42C [Longicyclene] | 0.2 | 
28 | CC1=C[C@H]2[C@@H](CC1)C(C)=CCCC2(C)C [γ-Himachalene] | 5.8 | 
29 | CC(C)=CC/C=C(/C)C1CC=C(C)CC1 (stereo not drawn) [E-α-Bisabolene] | 0.9 | 
30 | C/C1=C\CC/C(C)=C/CC(C)(C)/C=C/C1 [α-Humulene] |  | 0.7
31 | C=C1[C@@H]2CC[C@H]3[C@@H]2[C@@H](C(C)C)CC[C@@]13C [Sativene] | 3.1 | 
32 | CC1=C2C=C(C(C)C)CCC2(C)CCC1 (stereo not drawn) [δ-Selinene] |  | 25.3
